# Patent US10988459B2 (priority 2015, dated 2021)
# Biological target: human RIP1 kinase domain (2-375) (Homo sapiens (Human), UniProt Q13546)
# Test: biochemical
# Assay type: biochemical
# Settings: tight-binding apparent inhibition constant; human RIP1 kinase domain (2-375) 50 nM, 50 uM ATP, 2 hours; read-out: Ki
# Outline: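 Ki^app comes from Morrison tight-binding fits of fractional activity versus compound concentration. Activity was read as ADP production, via tracer displacement lowering fluorescence polarization (633 nm laser). Conditions: 2 h, 50 nM insect-cell-expressed enzyme, 50 uM ATP, 30 mM MgCl2, 1 mM DTT, 0.5% DMSO, pH 7.5 Hepes.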
# Sequence of human RIP1 kinase domain (2-375) (Q13546 2-375): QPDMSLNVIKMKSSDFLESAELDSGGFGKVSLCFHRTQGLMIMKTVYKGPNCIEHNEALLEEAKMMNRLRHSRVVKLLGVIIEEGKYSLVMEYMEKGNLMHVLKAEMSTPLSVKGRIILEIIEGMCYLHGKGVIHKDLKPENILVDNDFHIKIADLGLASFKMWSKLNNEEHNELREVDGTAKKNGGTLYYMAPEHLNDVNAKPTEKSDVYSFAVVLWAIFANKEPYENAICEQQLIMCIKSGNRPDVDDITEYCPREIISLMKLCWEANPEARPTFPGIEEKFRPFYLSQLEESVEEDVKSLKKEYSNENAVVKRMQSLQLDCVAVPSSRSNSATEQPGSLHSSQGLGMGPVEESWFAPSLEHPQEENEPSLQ
row,Ki,SMILES
1,282 nM,"CN1C(=O)[C@@H](NC(=O)c2nc3n(n2)C(C2CCCCC2)CCC3)CCn2nccc21 (stereo partly drawn) [Example 381, 5-cyclohexyl-N—((S)-4-methyl-5-oxo-5,6,7,8-tetrahydro-4H-pyrazolo[1,5-a][1,3]diazepin-6-yl)-5,6,7,8-tetrahydro-[1,2,4]triazolo[1,5-a]pyridine-2-carboxamide]"
2,13.1 nM,"CN1C(=O)[C@@H](NC(=O)c2nc3cccc(-c4cc(F)ccc4F)n3n2)CCn2nccc21 [Example 382, (S)-5-(2,5-difluorophenyl)-N-(4-methyl-5-oxo-5,6,7,8-tetrahydro-4H-pyrazolo[1,5-a][1,3]diazepin-6-yl)-[1,2,4]triazolo[1,5-a]pyridine-2-carboxamide]"
3,29.5 nM,"CCC1CCCc2nc(C(=O)N[C@H]3COc4ccccc4N(C)C3=O)nn21 (stereo partly drawn) [Example 383, 5-ethyl-N—((S)-5-methyl-4-oxo-2,3,4,5-tetrahydrobenzo[b][1,4]oxazepin-3-yl)-5,6,7,8-tetrahydro-[1,2,4]triazolo[1,5-a]pyridine-2-carboxamide]"
4,14.8 nM,"CN1C(=O)[C@@H](NC(=O)c2nc3cccc(-c4ccccc4F)n3n2)CCn2nccc21 [Example 386, (S)-5-(2-fluorophenyl)-N-(4-methyl-5-oxo-5,6,7,8-tetrahydro-4H-pyrazolo[1,5-a][1,3]diazepin-6-yl)-[1,2,4]triazolo[1,5-a]pyridine-2-carboxamide]"
5,100 nM,"CN1C(=O)[C@@H](NC(=O)c2nc3n(n2)C(c2ccccc2F)CCC3)CCn2nccc21 (stereo partly drawn) [Example 387, 5-(2-fluorophenyl)-N—((S)-4-methyl-5-oxo-5,6,7,8-tetrahydro-4H-pyrazolo[1,5-a][1,3]diazepin-6-yl)-5,6,7,8-tetrahydro-[1,2,4]triazolo[1,5-a]pyridine-2-carboxamide]"
6,124 nM,"CN1C(=O)[C@@H](NC(=O)c2nc3n(n2)C(c2cc(F)ccc2F)CCC3)CCn2nccc21 (stereo partly drawn) [Example 388, 5-(2,5-difluorophenyl)-N—((S)-4-methyl-5-oxo-5,6,7,8-tetrahydro-4H-pyrazolo[1,5-a][1,3]diazepin-6-yl)-5,6,7,8-tetrahydro-[1,2,4]triazolo[1,5-a]pyridine-2-carboxamide]"
7,173 nM,"CN1C(=O)[C@@H](NC(=O)c2nc3cccc(-c4ccoc4)n3n2)CCn2nccc21 [Example 389, (S)-5-(furan-3-yl)-N-(4-methyl-5-oxo-5,6,7,8-tetrahydro-4H-pyrazolo[1,5-a][1,3]diazepin-6-yl)-[1,2,4]triazolo[1,5-a]pyridine-2-carboxamide]"
8,3000 nM,"CN1C(=O)[C@@H](NC(=O)c2nc3n(n2)C(C2CCOC2)CCC3)CCn2nccc21 (stereo partly drawn) [Example 390, N—((S)-4-methyl-5-oxo-5,6,7,8-tetrahydro-4H-pyrazolo[1,5-a][1,3]diazepin-6-yl)-5-(tetra hydrofuran-3-yl)-5,6,7,8-tetrahydro-[1,2,4]triazolo[1,5-a]pyridine-2-carboxamide]"
9,65.8 nM,"CN1C(=O)[C@@H](NC(=O)c2nc3cccc(-c4ccccc4)c3s2)COc2ccccc21 [Example 391, (S)—N-(5-methyl-4-oxo-2,3,4,5-tetrahydrobenzo[b][1,4]oxazepin-3-yl)-7-phenylbenzo[d]thiazole-2-carboxamide]"
10,96.3 nM,"CN1C(=O)[C@@H](NC(=O)c2nc3cccc(-c4ccccc4)c3s2)CCn2nccc21 [Example 392, (S)—N-(4-methyl-5-oxo-5,6,7,8-tetrahydro-4H-pyrazolo[1,5-a][1,3]diazepin-6-yl)-7-phenylbenzo[d]thiazole-2-carboxamide]"
11,463 nM,"CN1C(=O)[C@@H](NC(=O)c2nc3cccc(-c4cnn(C)c4)n3n2)CCn2nccc21 [Example 393, (S)-5-(1-methyl-1H-pyrazol-4-yl)-N-(4-methyl-5-oxo-5,6,7,8-tetrahydro-4H-pyrazol-[1,5-a][1,3]diazepin-6-yl)-[1,2,4]triazolo[1,5-a]pyridine-2-carboxamide]"
12,6.04 nM,"CN1C(=O)[C@@H](NC(=O)c2nc3cccc(-c4c(F)cccc4F)n3n2)CCn2nccc21 [Example 394, (S)-5-(2,6-difluorophenyl)-N-(4-methyl-5-oxo-5,6,7,8-tetrahydro-4H-pyrazolo[1,5-a][1,3]diazepin-6-yl)-[1,2,4]triazolo[1,5-a]pyridine-2-carboxamide]"
13,104 nM,"CN1C(=O)[C@@H](NC(=O)c2nc3cccc(C4=CCOCC4)n3n2)CCn2nccc21 [Example 395, (S)-5-(3,6-dihydro-2H-pyran-4-yl)-N-(4-methyl-5-oxo-5,6,7,8-tetrahydro-4H-pyrazolo[1,5-a][1,3]diazepin-6-yl)-[1,2,4]triazolo[1,5-a]pyridine-2-carboxamide]"
14,152 nM,"CN1C(=O)[C@@H](NC(=O)c2nc3n(n2)C(c2c(F)cccc2F)CCC3)CCn2nccc21 (stereo partly drawn) [Example 396, 5-(2,6-difluorophenyl)-N—((S)-4-methyl-5-oxo-5,6,7,8-tetrahydro-4H-pyrazolo[1,5-a][1,3]diazepin-6-yl)-5,6,7,8-tetrahydro-[1,2,4]triazolo[1,5-a]pyridine-2-carboxamide]"
15,709 nM,"CN1C(=O)[C@@H](NC(=O)c2nc3n(n2)C(c2cnn(C)c2)CCC3)CCn2nccc21 (stereo partly drawn) [Example 397, 5-(1-methyl-1H-pyrazol-4-yl)-N—((S)-4-methyl-5-oxo-5,6,7,8-tetrahydro-4H-pyrazolo[1,5-a][1,3]diazepin-6-yl)-5,6,7,8-tetrahydro-[1,2,4]triazolo[1,5-a]pyridine-2-carboxamide]"
16,36 nM,"CN1C(=O)[C@@H](NC(=O)c2nc3cccc(-c4cnn(C)c4)n3n2)COc2ccccc21 [Example 398, (S)-5-(1-methyl-1H-pyrazol-4-yl)-N-(5-methyl-4-oxo-2,3,4,5-tetrahydrobenzo[b][1,4]oxazepin-3-yl)-[1,2,4]triazolo[1,5-a]pyridine-2-carboxamide]"
17,4.5 nM,"CN1C(=O)[C@@H](NC(=O)c2nc3cccc(-c4ccoc4)n3n2)COc2ccccc21 [Example 399, (S)-5-(furan-3-yl)-N-(5-methyl-4-oxo-2,3,4,5-tetrahydrobenzo[b][1,4]oxazepin-3-yl)-[1,2, 4]triazolo[1,5-a]pyridine-2-carboxamide]"
18,35.6 nM,"CN1C(=O)[C@@H](NC(=O)c2nc3cccc(C4CCOCC4)n3n2)COc2ccccc21 [Example 405, (S)—N-(5-methyl-4-oxo-2,3,4,5-tetrahydrobenzo[b][1,4]oxazepin-3-yl)-5-(tetrahydro-2H-pyran-4-yl)-[1,2,4]triazolo[1,5-a]pyridine-2-carboxamide]"
19,4.72 nM,"CC(C)c1cccc2nc(C(=O)N[C@H]3COc4ccccc4N(C)C3=O)nn12 [Example 406, (S)-5-isopropyl-N-(5-methyl-4-oxo-2,3,4,5-tetrahydrobenzo[b][1,4]oxazepin-3-yl)-[1,2,4]triazolo[1,5-a]pyridine-2-carboxamide]"
20,147 nM,"CN1C(=O)[C@@H](NC(=O)c2nc3n(n2)C(C2CCOCC2)CCC3)COc2ccccc21 (stereo partly drawn) [Example 408, N—((S)-5-methyl-4-oxo-2,3,4,5-tetrahydrobenzo[b][1,4]oxazepin-3-yl)-5-(tetrahydro-2H-pyran-4-yl)-5,6,7,8-tetrahydro-[1,2,4]triazolo[1,5-a]pyridine-2-carboxamide]"
21,36.5 nM,"O=C(N[C@H]1COc2cc(F)cc(F)c2NC1=O)c1nc2cccc(C(F)(F)F)n2n1 [Example 417, (S)—N-(6,8-difluoro-4-oxo-2,3,4,5-tetrahydrobenzo[b][1,4]oxazepin-3-yl)-5-(trifluoromethyl)-[1,2,4]triazolo[1,5-a]pyridine-2-carboxamide]"
22,34.3 nM,"O=C(N[C@H]1CCc2cc(F)cc(F)c2NC1=O)c1nc2cccc(C(F)(F)F)n2n1 [Example 418, (S)—N-(7,9-difluoro-2-oxo-2,3,4,5-tetrahydro-1H-benzo[b]azepin-3-yl)-5-(trifluoromethyl)-[1,2,4]triazolo[1,5-a]pyridine-2-carboxamide]"
23,9.4 nM,"Cc1cc(F)c2c(c1)OC[C@H](NC(=O)c1nc3cccc(C(F)(F)F)n3n1)C(=O)N2 [Example 419, (S)—N-(6-fluoro-8-methyl-4-oxo-2,3,4,5-tetrahydrobenzo[b][1,4]oxazepin-3-yl)-5-(trifluoromethyl)-[1,2,4]triazolo[1,5-a]pyridine-2-carboxamide]"
24,4.71 nM,"CC(C)c1cccc2nc(C(=O)N[C@H]3CCc4cc(F)cc(F)c4NC3=O)nn12 [Example 420, (S)—N-(7,9-difluoro-2-oxo-2,3,4,5-tetrahydro-1H-benzo[b]azepin-3-yl)-5-isopropyl-[1,2,4]triazolo[1,5-a]pyridine-2-carboxamide]"
25,15.9 nM,"Cn1cc(-c2cccc3nc(C(=O)N[C@H]4COc5cc(F)cc(F)c5NC4=O)nn23)cn1 [Example 421, (S)—N-(6,8-difluoro-4-oxo-2,3,4,5-tetrahydrobenzo[b][1,4]oxazepin-3-yl)-5-(1-methyl-1H-pyrazol-4-yl)-[1,2,4]triazolo[1,5-a]pyridine-2-carboxamide]"
26,27.4 nM,"O=C(N[C@H]1COc2cc(F)cc(F)c2NC1=O)c1nc2cccc(C3CCOCC3)n2n1 [Example 422, (S)—N-(6,8-difluoro-4-oxo-2,3,4,5-tetrahydrobenzo[b][1,4]oxazepin-3-yl)-5-(tetrahydro-2H-pyran-4-yl)-[1,2,4]triazolo[1,5-a]pyridine-2-carboxamide]"
27,3.4 nM,"Cc1cc(F)c2c(c1)OC[C@H](NC(=O)c1nc3cccc(C(C)C)n3n1)C(=O)N2 [Example 423, (S)—N-(6-fluoro-8-methyl-4-oxo-2,3,4,5-tetrahydrobenzo[b][1,4]oxazepin-3-yl)-5-isopropyl-[1,2,4]triazolo[1,5-a]pyridine-2-carboxamide]"
28,3 nM,"CC(C)c1cccc2nc(C(=O)N[C@H]3COc4cc(F)cc(F)c4NC3=O)nn12 [Example 424, (S)—N-(6,8-difluoro-4-oxo-2,3,4,5-tetrahydrobenzo[b][1,4]oxazepin-3-yl)-5-isopropyl-[1,2,4]triazolo[1,5-a]pyridine-2-carboxamide]"
